In publication PMC12304826, “Redirecting the Peptide Cleavage Causes Protease Inactivation” (Angewandte Chemie (International Ed. in English), 2025):
Where two headings read alike, the source gives them in different places.

Assays:
human cathepsin B [1] = target: T1, human cathepsin B (Homo sapiens, UniProt P07858); assay: Cathepsin B inhibition assay (chromogenic substrate Cbz-Arg-Arg-pNA); type: biochemical; details: for remaining activity at 20 µM: 20 µM inhibitor, duplicate measurements, product formation after 60 min, read-out: r.a. (%), residual enzymatic activity of cathepsin B; for kinact/KI: 1 h; for kinac: calculated from kinac/Ki values and separately obtained Ki values
T1 construct: purchased Calbiochem, Darmstadt, Germany
Description: To get a first insight into the interaction with human cathepsin B, the inhibition of the enzyme‐catalyzed cleavage of a chromogenic peptide substrate was examined. […] Active compounds were subjected to kinetic measurements at five different concentrations (Tables 1 and S1).
Figure 1 Cathepsin B‐catalyzed hydrolysis of 500 µM (= 0.45 K m) of Cbz‐Arg‐Arg‐p‐nitroanilide in the absence (black) or presence of increasing concentrations of carbamate 4 (from top to bottom: 0.4, 0.8, 1.2, 1.6, and 2.0 µM).
1. Enzyme Inhibition Assays and Kinetic Data of Inhibition of Cathepsins B, L, K and S General. Human cathepsins were assayed either fluorimetrically or spectrophotometrically as noted below. The 10 mM inhibitor solutions were prepared in DMSO. The final concentration of DMSO in all assays was 2%. Non-linear regressions were conducted with GraFit 5. Residual cathepsin activity at an inhibitor concentration of 20 µM was determined from duplicate measurements based on the product formation after 60 min. Concentration dependent measurements were performed in duplicate measurements with five different inhibitor concentrations when the residual cathepsin activity in the presence of 20 µM inhibitor was below 70% (cathepsin B) or below 50% (cathepsins cathepsins L, K, and S). Progress curves were monitored for 60 min. First-order rate constants, kobs, were determined by non-linear regression following the equation [P] = vi × (1 – exp(-kobs × t))/kobs + d, where [P] is the product concentration, vi is the initial product formation rate, kobs is the observed first-order rate constant, and d is the offset. Mean values of kobs were plotted versus corresponding inhibitor concentrations [I], and second-order rate constants of inactivation, kinac/Ki, were obtained by linear regression. The equation kobs/[I] = (kinac/Ki)/(1 + [S]/Km) was used, where [S] is the substrate concentration and Km is the Michaelis-Menten constant. Standard errors (SE) refer to the linear regression.
Cathepsin B inhibition assay.[1] Human isolated cathepsin B (Calbiochem, Darmstadt, Germany) was assayed spectrophotometrically on a Cary 50 or 100 Bio, Varian, at 405 nm. The reactions were followed at 37 °C. Assay buffer was 100 mM sodium phosphate buffer pH 6.0, 100 mM NaCl, 5 mM EDTA, 0.01% Brij 35. A stock solution of human cathepsin B of 1.81 mg/mL or 0.47 mg/mL in 20 mM sodium acetate buffer pH 5.0, 1 mM ethylenediaminetetraactic acid (EDTA) was diluted 1:500 with assay buffer containing 5 mM dithiothreitol (DTT) and incubated for 30 min at 37 °C. A 100 mM stock solution of the para-nitroaniline (pNA)-based chromogenic substrate Cbz-Arg-Arg-pNA was prepared in DMSO.
The final concentration of the substrate was 500 μM (= 0.45 Km). Into a cuvette containing 960 μL assay buffer, inhibitor solution and DMSO in a total volume of 15 μL, and 5 μL of the substrate solution were added and mixed. The reaction was initiated by adding 20 μL of the enzyme solution. […]

human cathepsin B [2] = target: T1, human cathepsin B; assay: Cathepsin B reactivation experiment; type: biochemical; details: 30 min incubation with 0.5 µM, spin-filter removal of inhibitor, 200 min
Description: Figure S2. Reactivation experiment of human cathepsin B after incubation with the carbamate inhibitors 7 and 31. Cathepsin B (38 µg/mL) was incubated under assay conditions for 30 min with • DMSO, • 5 µM of compound 7, or • 0.5 µM of compound 31. After removal of assay buffer, DMSO and excessive inhibitor by spin-filter centrifugation, product formation was followed in the presence of Cbz-Arg-Arg-pNA as substrate for 200 min. A negative control (•) containing only substrate and no enzyme was used to measure spontaneous decay of the substrate.
(also on this page, place not known: time (min) 0 60 120 180 absorption 0 0.2 0.4 0.6)
(1 picture or pasted object on this page, not shown here)

[3] = pH 6, five inhibitor concentrations, duplicates, 60 min progress curves, 500 µM Cbz-Arg-Arg-pNA, pH 6.0, 37 °C, read-out: k inac/K i ± SE, second-order rate constant of enzyme inactivation, cathepsin B

Row | SMILES | remaining activity at 20 µM (human cathepsin B [1]) [%] | kinact/KI (human cathepsin B [1]; [3]) [M⁻¹ s⁻¹] | further results
1 | CC(C)CC(OC(=O)Nc1ccc(Cl)cc1)C(=O)N1CCC[C@H]1C(=O)O (stereo partly drawn) [Compound 17] | 68 |  | kinact/KI (human cathepsin B [1]; five inhibitor concentrations, duplicates, 60 min progress curves, 500 µM Cbz-Arg-Arg-pNA, pH 6.0, 37 °C, read-out: k inac/K i ± SE, second-order rate constant of enzyme inactivation, cathepsin B): 10.6 ± 1.6 M⁻¹ s⁻¹
2 | CC(C)C[C@H](NC(=O)Oc1ccc(NC(=O)Cc2ccccc2)c(Cl)c1)C(=O)N1CCC[C@H]1C(=O)O [Compound 24] | ≤ 2 | 6530 ± 310 | 
3 | CC(C)C[C@H](NC(=O)Oc1ccc(Cl)cc1)C(=O)N[C@@H](Cc1ccccc1)C(=O)OC(C)(C)C [Compound 2] | 92 |  | 
4 | CC(C)CC(NC(=O)Oc1ccccc1)C(=O)NC(Cc1ccccc1)C(=O)O (stereo not drawn) [Compound 1] | 23 | 157 ± 13 | 
5 | CC(C)C[C@H](NC(=O)Oc1ccc(Cl)cc1)C(=O)N1CCC[C@H]1C(=O)O [Compound 8] | 4 | 711 ± 40 | 
6 | CC(C)C[C@H](NC(=O)Oc1ccc(Cl)cc1)C(=O)N[C@@H](Cc1ccccc1)C(=O)O [Compound 4] | ≤ 2 | 745 ± 5 | 
7 | O=C(NC(CC1CCCCC1)C(=O)NC(Cc1ccccc1)C(=O)O)Oc1ccc(NC(=O)C(Cc2ccccc2)Cc2ccccc2)c(Cl)c1 (stereo not drawn) [Compound 31] | ≤ 2 | 23600 ± 1900 | fold lower K i value in comparison with 7 (human cathepsin B [1]; 31 versus 7): more than 20 fold; kinac (human cathepsin B [1]): 0.0104 s⁻¹; Ki (human cathepsin B [1]; non-covalent enzyme-inhibitor complex, read-out: K i value): 0.441 µM; reversibility of cathepsin B inhibition (human cathepsin B [2]): irreversible
8 | CC(C)C[C@H](NC(=O)Oc1ccc(Cl)cc1)C(=O)N1CCCC[C@H]1C(=O)O [Compound 10] | 5 | 933 ± 40 | 
9 | CC(C)CC(NC(=O)Oc1ccc(NC(=O)C(c2ccccc2)c2ccccc2)c(Cl)c1)C(=O)N1CCCC1C(=O)O (stereo not drawn) [Compound 28] | ≤ 2 | 8180 ± 290 | 
10 | CC(C)CC(NC(=O)Oc1ccc(NC(=O)C(c2ccccc2)c2ccccc2)c(Cl)c1)C(=O)NC(Cc1ccccc1)C(=O)O (stereo not drawn) [Compound 29] | ≤ 2 | 11300 ± 600 | 
11 | CC(C)C[C@H](NC(=O)Oc1ccc(-c2ccccc2)c(NC(=O)Cc2ccccc2)c1)C(=O)N1CCC[C@H]1C(=O)O [Compound 21] | ≤ 2 | 1340 ± 20 | 
12 | CC(C)CC(NC(=O)Oc1ccc(Cl)c(NC(=O)C(c2ccccc2)c2ccccc2)c1)C(=O)N1CCCC1C(=O)O (stereo not drawn) [Compound 22] | ≤ 2 | 3830 ± 70 | 
13 | CC(C)CC(NC(=O)Oc1ccc(NC(=O)C(c2ccccc2)c2ccccc2)c(Br)c1)C(=O)N1CCCC1C(=O)O (stereo not drawn) [Compound 27] | ≤ 2 | 6000 ± 100 | 
14 | O=C(NC(CC1CCCCC1)C(=O)NC(Cc1ccccc1)C(=O)O)Oc1ccc(Cl)cc1 (stereo not drawn) [Compound 7] | ≤ 2 | 2010 ± 110 | kinac (human cathepsin B [1]): 0.0200 s⁻¹; Ki (human cathepsin B [1]; non-linear regression of initial rates vi versus inhibitor concentration, read-out: Ki ± SE): 9.96 µM
15 | CC(C)C[C@H](NC(=O)Oc1cccc(Cl)c1)C(=O)N1CCC[C@H]1C(=O)O [Compound 23] | ≤ 2 | 2760 ± 50 | 
16 | CC(C)C[C@H](NC(=O)Nc1ccc(Cl)cc1)C(=O)N1CCC[C@H]1C(=O)O [Compound 19] | 95 |  | 
17 | CC(C)C[C@H](NC(=O)Oc1ccc(NC(=O)N(Cc2ccccc2)Cc2ccccc2)c(Br)c1)C(=O)N1CCC[C@H]1C(=O)O [Compound 26] |  |  | kinact/KI (human cathepsin B [1]; pH 6, read-out: k inac/K i ± SE, second-order rate constant of enzyme inactivation, cathepsin B): 2660 ± 80 M⁻¹ s⁻¹
18 | CC(C)C[C@H](NC(=O)Nc1ccc(Cl)cc1)C(=O)N[C@@H](Cc1ccccc1)C(=O)O [Compound 18] | 90 |  | 
19 | CC(C)C[C@H](NC(=O)Oc1ccc(Cl)c(NC(=O)Cc2ccccc2)c1)C(=O)N1CCC[C@H]1C(=O)O [Compound 20] | ≤ 2 | 2860 ± 50 | 
20 | CC(C)CC(OC(=O)Nc1ccc(Cl)cc1)C(=O)N[C@@H](Cc1ccccc1)C(=O)O (stereo partly drawn) [Compound 16] | 91 |  | 
21 | CC(C)CC(CNC(=O)Oc1ccc(Cl)cc1)C(=O)N1CCC[C@@H]1C(=O)O (stereo partly drawn) [Compound 9] | 53 | 30.3 ± 4.1 | 
22 | O=C(NC(CC1CCCCC1)C(=O)NC(Cc1ccccc1)C(=O)O)Oc1ccc(NC(=O)C(c2ccccc2)c2ccccc2)c(Cl)c1 (stereo not drawn) [Compound 30] | ≤ 2 | > 10000 | k inac/K i ± SE, second-order rate constant of enzyme inactivation, cathepsin B (human cathepsin B [1]; five inhibitor concentrations, duplicates, 60 min progress curves, 500 µM Cbz-Arg-Arg-pNA, pH 6.0, 37 °C): 13,800 M^−1s^−1
23 | CC(C)CC(CNC(=O)Oc1ccc(Cl)cc1)C(=O)N[C@H](Cc1ccccc1)C(=O)O (stereo partly drawn) [Compound 5] | 11 | 108 ± 5 | 
24 | COC(=O)C(Cc1ccccc1)NC(=O)C(CC(C)C)NC(=O)Oc1ccc(Cl)cc1 (stereo not drawn) [Compound 3] | 97 |  | 
25 | CC(C)CC(NC(=O)Oc1ccc(NC(=O)c2ccc(-c3ccccc3)cc2)c(Cl)c1)C(=O)N1CCCC1C(=O)O (stereo not drawn) [Compound 25] | ≤ 2 | 3640 ± 60 | 
